Legend:
[1] = tested on: dural blood vessel dilation; conditions: dilation from electrical stimulation, calcitonin gene-related peptide, nitrous oxide and capsaicin; reversed by a cannabinoid antagonist; cited from earlier work
[2] = tested on: patients with acute migraine attack; test: Clinical trial of THC vs ibuprofen in acute migraine attack (Example 2); assay type: in vivo, human; conditions: primary endpoint; assumption for sample size
Excerpt: To assess the effect of Tetrahydrocannabinol (THC) or a derivative thereof vs. NSAIDs (such as ibuprofen) in relieving acute migraine attack.
This example provides a prospective randomized double-blind, placebo-controlled trial.
The study population includes patients presenting with chief complaint an acute migraine attack to the emergency department (ED) at Soroka University Medical Center.
The study population is randomized into “double dummy” design (ratio 1:1): • Group 1—received Tetrahydrocannabinol (THC) and placebo tab ibuprofen. • Group 2—received placebo Tetrahydrocannabinol (THC) drops and tab ibuprofen.
The THC study doses include dose rages of between about 5 mg and up to 50 mg THC, preferably dose ranges of between about 10 mg THC and about 30 mg THC.
According to one embodiment, an ethanol extracted cannabis oil dissolved in a vegetable oil (with a distinct taste to differentiate it from the placebo oil) is used in this study. The aforementioned cannabis composition comprises THC dose range of about 20 mg to about 40 mg.
Headache and nausea severity is assessed using a 4-point pain severity scale (score 0-3) as detailed above. […] Additionally, THC blood levels are measured at about 30, 60 minutes and 2 hours. […]

SMILES | dural blood vessel dilation [1] | expected treatment failure rate [2] [%]
CCCCC/C=C\C/C=C\C/C=C\C/C=C\CCCC(=O)NCCO [AEA, N-arachidonoylethanolamine] | inhibit | –
CCCCCc1cc(O)c2c(c1)OC(C)(C)[C@@H]1CCC(C)=C[C@@H]21 [THC, Δ9-Tetrahydrocannabinol] | – | 40
